# Reference: the supplement of paper PMC13380429
# Assays:
# Settings in all cases: 72 h
# Calu-3 [1] = assay: drug sensitivity score (DSS) for viability; higher = more toxic; extreme values may be limits of the assay
# Vero E6 [2] = assay: as above
# U2OS [3] = assay: as above
# HepG2 [4] = assay: as above
# Caco-2 [5] = assay: as above
# Calu-3 [6] = assay: cell viability relative to DMSO; higher = less toxic
# Vero E6 [7] = assay: as above
# U2OS [8] = assay: as above
# HepG2 [9] = assay: as above
# Caco-2 [10] = assay: as above
# Calu-3 [11] = assay: relative viability EC50 (midpoint between 100% and the lowest measured viability); higher = less toxic
# Vero E6 [12] = assay: as above
# U2OS [13] = assay: as above
# HepG2 [14] = assay: as above
# Caco-2 [15] = assay: as above
Structure (SMILES),drug sensitivity score (Calu-3 [1]),drug sensitivity score (Vero E6 [2]),drug sensitivity score (U2OS [3]),drug sensitivity score (HepG2 [4]),drug sensitivity score (Caco-2 [5]),cell viability (Calu-3 [6]; 1 nM),cell viability (Calu-3 [6]; 10 nM),cell viability (Calu-3 [6]; 100 nM),cell viability (Calu-3 [6]; 1000 nM),cell viability (Calu-3 [6]; 10000 nM),cell viability (Vero E6 [7]; 1 nM),cell viability (Vero E6 [7]; 10 nM),cell viability (Vero E6 [7]; 100 nM),cell viability (Vero E6 [7]; 1000 nM),cell viability (Vero E6 [7]; 10000 nM),cell viability (U2OS [8]; 1 nM),cell viability (U2OS [8]; 10 nM),cell viability (U2OS [8]; 100 nM),cell viability (U2OS [8]; 1000 nM),cell viability (U2OS [8]; 10000 nM),cell viability (HepG2 [9]; 1 nM),cell viability (HepG2 [9]; 10 nM),cell viability (HepG2 [9]; 100 nM),cell viability (HepG2 [9]; 1000 nM),cell viability (HepG2 [9]; 10000 nM),cell viability (Caco-2 [10]; 1 nM),cell viability (Caco-2 [10]; 10 nM),cell viability (Caco-2 [10]; 100 nM),cell viability (Caco-2 [10]; 1000 nM),cell viability (Caco-2 [10]; 10000 nM),relative viability EC50 (Calu-3 [11]),relative viability EC50 (Vero E6 [12]),relative viability EC50 (U2OS [13]),relative viability EC50 (HepG2 [14]),relative viability EC50 (Caco-2 [15])
CCCc1nc(C(C)(C)O)c(C(=O)O)n1Cc1ccc(-c2ccccc2-c2nnn[nH]2)cc1 [olmesartan],0,0,0,0,0,105%,101%,102%,98%,101%,98.8%,102%,97.2%,96.9%,92.7%,98.2%,96.5%,98.7%,93.5%,99.6%,93.8%,108%,93.3%,98.7%,99.6%,93%,95.5%,91.8%,90.9%,99.3%,> 10 µM,> 10 µM,> 10 µM,> 10 µM,> 10 µM
CCOC(=O)C1=C[C@@H](OC(CC)CC)[C@H](NC(C)=O)[C@@H](N)C1 [oseltamivir-phosphate],0,0,0,0,0,99.4%,96.9%,104%,103%,106%,95.4%,93.2%,99.1%,92.4%,103%,93.4%,104%,97.9%,97.6%,102%,107%,98.6%,98%,106%,107%,79.7%,92.2%,92.6%,95.9%,94%,> 10 µM,> 10 µM,> 10 µM,> 10 µM,> 10 µM
COc1ccc(COc2cc3oc(=O)c4cc(C(C)O)ccc4c3cc2OC)cc1 (stereo not given) [palomid-529],0,0,0,0,0.3,111%,98.9%,84.8%,101%,96.2%,101%,100%,99%,100%,99.7%,96.3%,105%,94.4%,94%,99.8%,97.3%,100%,101%,99.6%,102%,107%,94.1%,96.4%,85.6%,93.7%,> 10 µM,> 10 µM,> 10 µM,> 10 µM,> 10 µM
Cc1cc(NC(=O)NCCN2CCC(O)(Cc3ccccc3)CC2)c2ccccc2n1 [palosuran],0,0,0,0,0,95.3%,91.9%,103%,100%,89.4%,104%,106%,99.4%,104%,102%,99.3%,94.9%,98%,96.5%,103%,102%,110%,96.3%,99.7%,92.5%,99.5%,93.1%,88.3%,99.4%,104%,> 10 µM,> 10 µM,> 10 µM,> 10 µM,> 10 µM
